We go through 19 compounds from US9505773B2 (Isomerase Therapeutics Limited, priority 2013, dated 2016).

The structures appear in SMILES notation.

The target of one experiment is FKBP12 (Homo sapiens (Human), UniProt P62942). In words: FKBP12 PPlase assay. The format is biochemical. The note with it: for Ki: FKBP12 PPlase assay, 6 concentrations in duplicate, data fitted to a Ki curve; for inhibition at 1 µM: read-out: inhibition of FKBP12 at 1 uM.
The test system of experiment [1] is murine T cell proliferation (PLP peptide-stimulated lymph node cells; mTOR-driven). Kind of experiment: Murine PLP T cell proliferation assay (PLP assay). In kind it is cell-based. The note with it: for IC50: Mus musculus, PLP T-cell proliferation assay; for Ratio (PLP/FKBP*): PLP IC50 / FKBP12 Ki (Ki values from Example 19).
Protocol: Murine PLP T Cell Proliferation Assay
Activity of mTOR inhibitors was measured in two different antigen-specific murine T cell proliferation assays (as described in Young et al., 2000). […] In a second type of assay, lymph nodes obtained from PLP TCR transgenic mice are simulated with PLP peptide in culture in a primary stimulation assay.

Sequence of FKBP12 (P62942 whole entry, species assumed): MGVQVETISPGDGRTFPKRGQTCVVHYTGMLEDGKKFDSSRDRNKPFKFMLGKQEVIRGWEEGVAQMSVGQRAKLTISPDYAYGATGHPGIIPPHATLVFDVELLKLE
Protocol for FKBP12: The first order rate equation was fitted to the absorbance data to obtain a rate constant. A catalytic rate (Kenz) was calculated from the enzymatic rate minus the background rate. Kenz v inhibitor concentration was plotted to obtain the Ki value. […] All compounds were assayed at 6 concentrations in duplicate and the data fitted to a Ki curve to afford a Ki value with standard error (SE).

As a reminder, the Ki is the equilibrium dissociation constant of an inhibitor or competing ligand from its target. The term IC50 denotes the concentration needed to halve the response being measured. As to `CO[C@H]1C[C@@H]2CC[C@@H](C)[C@@](O)(O2)C(=O)C(=O)N2CCCC[C@H]2C(=O)OC([C@H](C)C[C@@H]2CC[C@@H](O)[C@H](OC)C2)C/C=C(\C)[C@@H](O)CC(=O)[C@H](C)C[C@H](C)/C=C/C=C/C=C/1C` (some centres unmarked) [Compound 8], the Ki at FKBP12 came to 5.9 nM. In addition, in experiment [1], 490 nM corresponded to half-maximal inhibition (IC50) and the “Ratio (PLP/FKBP*)” value turned out to be 83.05.
For `CO[C@H]1C[C@@H]2CC[C@@H](C)[C@@](O)(O2)C(=O)C(=O)N2CCCC[C@H]2C(=O)O[C@H]([C@H](C)C[C@H]2CC[C@H](O)CC2)CC(O)CC(=O)[C@H](C)/C=C(\C)[C@@H](O)CC(=O)[C@@H](C)C[C@H](C)/C=C/C=C/C=C/1C` (some centres unmarked) [Compound 14], the Ki at FKBP12 came out at 6.5 nM. This counts as single-digit nanomolar.
`CO[C@H]1C[C@@H]2CC[C@@H](C)[C@@](O)(O2)C(=O)C(=O)N2CCCC[C@H]2C(=O)OC([C@H](C)Cc2ccncc2)C/C=C(\C)[C@@H](O)CC(=O)[C@H](C)C[C@H](C)/C=C/C=C/C=C/1C` (some centres unmarked) [Compound 13] gave a Ki on FKBP12 of 13 nM. Moreover, in experiment [1], 6590 nM corresponded to half-maximal inhibition (IC50) and the “Ratio (PLP/FKBP*)” value is listed as 506.6154.
In turn, `CO[C@H]1C[C@@H]2CC[C@@H](C)[C@](O)(CC(=O)N3CCCC[C@H]3C(=O)OC([C@H](C)C[C@@H]3CC[C@@H](O)[C@H](O)C3)C/C=C(\C)[C@@H](O)CC(=O)[C@H](C)C[C@H](C)/C=C/C=C/C=C/1C)O2` (some centres unmarked) [Compound 9] showed a Ki on FKBP12 of 180 nM.
On to `CO[C@H]1C[C@@H]2CC[C@@H](C)[C@@](O)(O2)C(=O)C(=O)N2CCCC[C@H]2C(=O)OC([C@H](C)C[C@@H]2CC[C@@H](O)[C@H](O)C2)C/C=C(\C)[C@@H](O)CC(=O)[C@H](C)C[C@H](C)/C=C/C=C/C=C/1C` (some centres unmarked) [Compound 10], for which the Ki at FKBP12 came out at 4.2 nM. Besides, in experiment [1], the IC50 came out at 14000 nM and the “Ratio (PLP/FKBP*)” value is 3338.333.
In the case of `CO[C@H]1C[C@@H]2CC[C@@H](C)[C@](O)(CC(=O)N3CCCC[C@H]3C(=O)O[C@H]([C@H](C)C[C@H]3CC[C@H](O)CC3)C/C=C(\C)[C@@H](O)CC(=O)[C@H](C)C[C@H](C)/C=C/C=C/C=C/1C)O2` [Compound 18], affinity on FKBP12 was put at a Ki of 45 nM. In other words, the double-digit nanomolar range.
`CO[C@H]1C[C@@H]2CC[C@@H](C)[C@@](O)(O2)C(=O)C(=O)N2CCCC[C@H]2C(=O)OC([C@H](C)Cc2ccc(CO)s2)C/C=C(\C)[C@@H](O)CC(=O)[C@H](C)C[C@H](C)/C=C/C=C/C=C/1C` (some centres unmarked) [Compound 12] displayed a Ki on FKBP12 of 9.5 nM. Also, in experiment [1], the IC50 stood at 2860 nM and the “Ratio (PLP/FKBP*)” value was found to be 301.5789.
In turn, `CO[C@@H](C[C@@H]1CC[C@@H](C)[C@](O)(C(=O)C(=O)N2CCCC[C@H]2C(=O)O[C@@H](C/C=C(\C)C=O)[C@H](C)C[C@H]2CC[C@H](O)CC2)O1)/C(C)=C/C=C/C=C/[C@@H](C)C[C@@H](C)C(=O)CO` [Compound 22] showed a Ki at FKBP12 of 12 nM.
For the compound `CO[C@H]1C[C@@H]2CC[C@@H](C)[C@](O)(CC(=O)N3CCCC[C@H]3C(=O)OC([C@H](C)C[C@H]3CC[C@H](O)CC3)CC(=O)[C@H](C)C[C@H](C)/C=C/C=C/C=C/1C)O2` (some centres unmarked) [Compound 6], the Ki on FKBP12 came to 370 nM. In addition, in experiment [1], 2620 nM corresponded to half-maximal inhibition (IC50) and the “Ratio (PLP/FKBP*)” value is reported as 7.095.
For `CO[C@H]1C[C@@H]2CC[C@@H](C)[C@](O)(CC(=O)N3CCCC[C@H]3C(=O)O[C@H](/C(C)=C/CC(O)[C@H](C)C[C@@H]3CC[C@@H](O)[C@H](O)C3)CC(=O)[C@H](C)C[C@H](C)/C=C/C=C/C=C/1C)O2` (some centres unmarked) [Compound 11], in that order: 430 nM, 4180 nM and 9.721.
In the case of `CO[C@H]1C[C@@H]2CC[C@@H](C)[C@@](O)(O2)C(=O)C(=O)N2CCCC[C@H]2C(=O)OC([C@H](C)C[C@H]2CC[C@H](O)CC2)C[C@@H](O)CC(=O)[C@H](C)C[C@H](C)/C=C/C=C/C=C/1C` (some centres unmarked) [Compound 4], the midpoint of inhibition in experiment [1], the IC50, lay at 4460 nM. This lies in the single-digit micromolar range.
On to `C/C1=C\C[C@@H]([C@H](C)C[C@H]2CC[C@H](O)CC2)OC(=O)[C@@H]2CCCCN2C(=O)C(=O)[C@]2(O)O[C@@H](CC[C@H]2C)C[C@H](O)/C(C)=C/C=C/C=C/[C@@H](C)C[C@@H](C)C(=O)C[C@@H]1O` [Compound 19], for which the Ki on FKBP12 came out at 7.7 nM. This lies in the single-digit nanomolar range.
In experiment [1], `CO[C@H]1C[C@@H]2CC[C@@H](C)[C@@](O)(O2)C(=O)C(=O)N2CCCC[C@H]2C(=O)O[C@H]([C@H](C)C[C@@H]2CC[C@@H](O)[C@H](OC)C2)CC(=O)[C@H](C)/C=C(\C)[C@@H](O)[C@@H](OC)C(=O)[C@H](C)C[C@H](C)/C=C/C=C/C=C/1C` [Rapamycin, rapamycin, reference compound] came in with an IC50 of 0.024 nM.
Compound `CO[C@H]1C[C@@H]2CC[C@@H](C)[C@@](O)(O2)C(=O)C(=O)N2CCCC[C@H]2C(=O)O[C@H]([C@H](C)C[C@H]2CC[C@H](O)CC2)C/C=C(\C)[C@@H](O)[C@@H](O)C(=O)[C@H](C)C[C@H](C)/C=C/C=C/C=C/1C` [Compound 20] came in with a Ki on FKBP12 of 18 nM.
Same read-out and setting: with `CO[C@H]1C[C@@H]2CC[C@@H](C)[C@@](O)(O2)C(=O)C(=O)N2CCCC[C@H]2C(=O)OC([C@H](C)C[C@H]2CC[C@H](O)CC2)C/C=C(\C)[C@@H](O)CC(=O)[C@H](C)C[C@H](C)/C=C/C=C/C=C/1C` (some centres unmarked) [Compound 5] the figure was 7.9 nM.
Compound `CC/C1=C\CC(/C(C)=C/C(C)C(C)O)OC(=O)C2CCCCN2C(=O)C(=O)C2(O)OC(CCC2C)CC(O)C(C)C(O)CC(O)CC(O)/C(C)=C/C(C)CC(C)C1O` (centres unmarked) [Meridamycin] yielded a Ki on FKBP12 of 10 nM.
The inhibition is the percentage by which the read-out fell short of the control. Regarding `CO[C@H]1C[C@@H]2CC[C@@H](C)[C@@](O)(O2)C(=O)C(=O)N2CCCC[C@H]2C(=O)OC2CCC(CC2)C(=O)[C@H](C)C[C@H](C)/C=C/C=C/C=C/1C` [Compound 15], the inhibition at 1 µM at FKBP12 was found to be 31%.
As for `C\C1=C/C=C/C=C/[C@@H](C)C[C@@H](C)C(=O)C2CCC(CC2)OC(=O)[C@@H]2CCCCN2C(=O)C(=O)[C@]2(O)O[C@@H](CC[C@H]2C)C[C@@H]1O` [Compound 16], the affinity on FKBP12 corresponds to a Ki of 460 nM.
With `CO[C@@H](C[C@@H]1CC[C@@H](C)[C@](O)(CC(=O)N2CCCC[C@H]2C(=O)O)O1)/C(C)=C/C=C/C=C/[C@@H](C)C[C@H]1CC[C@H](O)CC1` [Compound 3], on FKBP12, the inhibition at 1 µM stood at 25%. This compound showed an IC50 in experiment [1] of 1450 nM.
